This is an account of results in publication PMC4894409 (Scientific Reports, 2015).

The test system of one test is mice. As to the kind of experiment: FS test after AMPT, PCPA, PRAZ or WAY pretreatment (mechanism of antidepressant-like effect of D1). Type of test: in vivo, Male Swiss mice. As for the experimental part:
Mice were pretreated (i.p) with saline solution or AMPT 100 mg/kg (catecholamine depletor) 4 h prior to the oral administration of vehicle 10 mL/kg or D1 5 mg/kg. […] In a separate experiment, pretreatment (i.p) of mice with saline solution or PCPA 100 mg/kg (serotonin depletor) for four consecutive days prior to oral administration of vehicle or D1 5 mg/kg was used to investigate effect of serotonin depletion on antidepressant-like activity of this OAD. […] In all the four experiments, oral administration of vehicle or D1 5 mg/kg was followed by FS test (60 min interval between p.o. treatment and behavioural testing).

Another test deals with T1, recombinant human MAO-A (Homo sapiens, UniProt P21397).
T1 construct: purchased BD Biosciences Bedford, MA, USA
T1 sequence (P21397 1-527): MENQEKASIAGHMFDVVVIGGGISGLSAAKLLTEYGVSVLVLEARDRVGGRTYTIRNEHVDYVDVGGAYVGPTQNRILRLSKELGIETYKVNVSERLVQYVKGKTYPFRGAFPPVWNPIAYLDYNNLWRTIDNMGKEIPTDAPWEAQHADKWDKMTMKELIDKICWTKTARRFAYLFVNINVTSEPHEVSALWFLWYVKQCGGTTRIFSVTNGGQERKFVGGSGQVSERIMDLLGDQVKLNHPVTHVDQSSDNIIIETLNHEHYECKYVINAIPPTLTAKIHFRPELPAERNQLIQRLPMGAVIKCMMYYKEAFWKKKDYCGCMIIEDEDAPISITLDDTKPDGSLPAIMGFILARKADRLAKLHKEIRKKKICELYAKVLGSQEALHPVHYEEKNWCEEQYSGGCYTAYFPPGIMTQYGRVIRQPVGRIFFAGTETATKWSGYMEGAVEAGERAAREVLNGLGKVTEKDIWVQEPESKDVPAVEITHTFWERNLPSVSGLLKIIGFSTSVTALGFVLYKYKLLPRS
Nature of the test: Kynuramine deamination inhibition assay, MAO-A. Type of test: biochemical. The note with it: 80 μM kynuramine, pH 7.4, 37 °C. As for the experimental part: The assay was performed with the addition of inhibitor. Inhibition was calculated as percent of product formation compared to the corresponding control (enzyme-substrate reaction) without the inhibitors. The reactions were carried out in 0.1 M potassium phosphate buffer at pH 7.4. […] The compounds were dissolved in DMSO. The total reaction volume was 200 μL yielding a final DMSO concentration of 1.0% in the reaction mixture.

For orientation: IC50 means the point on the concentration scale where inhibition reaches its midpoint. Take `C=CC(=O)O[C@H]1CC[C@]2(C)[C@H]3CC=C4[C@@H]5CC(C)(C)CC[C@]5(C(=O)O)CC[C@@]4(C)[C@]3(C)CC[C@H]2C1(C)C` [D1, Oleanolic acid acrylate]: the “effect of AMPT pretreatment on antidepressant-like effect (swimming time)” value in the test with mice (AMPT 100 mg/kg i.p. + D1 5 mg/kg p.o. versus SAL + D1, p > 0.05) is “did not attenuate”. Besides, the “effect of PCPA pretreatment on antidepressant-like effect (swimming time)” value in the test with mice (PCPA 100 mg/kg i.p. four days + D1 5 mg/kg p.o. versus SAL + D1, p > 0.05) is recorded as “did not block”. Further, the “effect of PRAZ pretreatment on antidepressant-like effect (swimming time)” value with mice (PRAZ 1 mg/kg i.p. + D1 5 mg/kg p.o. versus SAL + D1, p > 0.05) was “did not block”. Moreover, the “swimming time in the FS test” value in the test on mice (SAL + D1 5 mg/kg p.o. versus SAL + Vehicle, p < 0.05) is on record as “increased the swimming time”. In addition, the “effect of WAY pretreatment on antidepressant-like effect (swimming time)” value in the test with mice (WAY 0.3 mg/kg i.p. + D1 5 mg/kg p.o. versus SAL + D1, p < 0.05) is reported as “significant blockade”. In addition, the IC50 on recombinant human MAO-A turned out to be 48.8 ± 1.94 µM.
